Source: ChEMBL document CHEMBL5728699, “Macrocyclic compounds for treatment of medical disorders” (2021)

molecular target: Complement factor D (Homo sapiens, UniProt P00746); test: Human Factor D Assay: Human Factor D (purified from human serum, Complement Technology, Inc.) at 80 nM final concentration is incubated with test compound at various concentrations for 5 min at room temperature in 50 mM Tris, 1M NaCl, pH 7.5. A synthetic substrate Z-L-Lys-SBzl and DTNB (Ellman's reagent) are added to final concentrations of 100 µM each. Absorbance at 405 nm (A405) is recorded at 30 second intervals for 30 minutes using a microplate spectrophotometer. IC50 values are calculated by nonlinear regression of Complement Factor D reaction rates as a function of test compound concentration.
Sequence (P00746 whole entry): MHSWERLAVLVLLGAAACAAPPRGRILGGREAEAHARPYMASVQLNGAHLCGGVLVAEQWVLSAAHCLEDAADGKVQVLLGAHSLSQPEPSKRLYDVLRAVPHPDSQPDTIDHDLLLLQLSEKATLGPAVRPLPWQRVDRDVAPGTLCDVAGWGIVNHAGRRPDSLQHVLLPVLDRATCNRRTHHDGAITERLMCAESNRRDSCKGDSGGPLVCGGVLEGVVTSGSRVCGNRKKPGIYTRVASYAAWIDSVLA

Question: For `CC(=O)c1nn2c3c(cc(-c4cnc(C)nc4)cc13)CC/C=C\CCCC(=O)NC[C@@]13C[C@@H](C(=O)Nc4nc(Br)ccc4C)N(C(=O)C2)[C@@H]1C3`, which IC50 is on record?
Answer: < 1000 nM

Question: `CC(=O)c1nn(CC(=O)N2[C@H]3C[C@@]4(/C=C\CCCCN(C)C(=O)Cc5ccc(Br)nc5NC3=O)C[C@@H]24)c2ccc(-c3cnc(C)nc3)cc12` was tested. Which IC50 did it give?
Answer: < 1000 nM

Question: How did the IC50 turn out when `CC(=O)c1nn2c3c(cc(-c4cnc(C)nc4)cc13)CCCCCC/C=C\c1cn(nn1)C[C@@]13C[C@@H](C(=O)Nc4nc(Br)ccc4C)N(C(=O)C2)[C@@H]1C3` was run?
Answer: < 1000 nM

Question: With `CC(=O)c1nn(CC(=O)N2[C@H]3C[C@]4(C[C@@H]24)CN2CC(CCCOCc4ccc(Br)nc4NC3=O)C2)c2c(C)cc(-c3cnc(C)nc3)cc12` as the molecule, how does the IC50 read?
Answer: < 1000 nM

Question: For `CC(=O)c1nn2c3c(cc(-c4cnc(C)nc4)cc13)C/C=C\CCCC(=O)NC[C@@]13C[C@@H](C(=O)Nc4nc(Br)ccc4C)N(C(=O)C2)[C@@H]1C3`, which IC50 is on record?
Answer: < 1000 nM

Question: How did the IC50 turn out when `CC(=O)c1nn(CC(=O)N2[C@H]3C[C@]4(C[C@@H]24)CN(C)CC(O)C(O)COCc2ccc(Br)nc2NC3=O)c2cnc(-c3cnc(C)nc3)cc12` (stereo not given in full) was run?
Answer: < 1000 nM

Question: With `CC(=O)c1nn(CC(=O)N2[C@H]3C[C@]4(C[C@@H]24)CN(C)CCCC/C=C\Cc2ccc(Br)nc2NC3=O)c2c(CF)cc(-c3cnc(C)nc3)cc12` as the molecule, how does the IC50 read?
Answer: < 1000 nM

Question: Which IC50 does the source give for `CC(=O)N[C@H]1C/C=C\COCc2ccc(Br)nc2NC(=O)[C@@H]2C[C@@]3(CNC1=O)C[C@H]3N2C(=O)Cn1nc(C(C)=O)c2cc(-c3cnc(C)nc3)ccc21` here?
Answer: < 1000 nM

Question: With `CC(=O)c1nn2c3c(cc(-c4cnc(C)nc4)cc13)C/C=C\CCCC(=O)NC[C@@]13C[C@@H](C(=O)Nc4nc(C(F)(F)F)ccc4C)N(C(=O)C2)[C@@H]1C3` as the molecule, how does the IC50 read?
Answer: < 1000 nM

Question: Which IC50 does the source give for `C=C1COCc2ccc(Br)nc2NC(=O)[C@@H]2C[C@]3(C[C@H]3N2C(=O)Cn2nc(C(C)=O)c3cc(-c4cnc(C)nc4)ncc32)Cn2cc1cn2` here?
Answer: < 1000 nM
